Test results: ChEMBL document CHEMBL2157899 (Bioorg Med Chem, 2012)
Non-standard residues stand in square brackets, D forms with d. Residues, ends and D or L forms follow the SMILES beside them. ξ: configuration not given here. ξGly(octyl) = CCCCCCCCC(N)C(=O)O

What was measured:
[1] = biological target: T1, Mu-type opioid receptor (Homo sapiens, UniProt P35372); assay: Agonist activity at MOP receptor expressed in CHO-K1 cells assessed as inhibition of forskolin-stimulated cAMP accumulation after 30 mins; format: functional, cell-based
[2] = test system: CHO-K1; assay: Selectivity ratio of Ki for DOP receptor expressed in CHO-K1 cells to Ki for MOP receptor expressed in CHO-K1 cells; format: cell-based
[3] = Half life in human Caco2 cell homogenate at 200 uM by LC/MS analysis; format: ADME, Colon; details: Caco-2 cell homogenate
[4] = biological target: Delta-type opioid receptor (Homo sapiens, UniProt P41143); assay: Displacement of [3H]DPDPE from DOP receptor expressed in CHO-K1 cells after overnight incubation by beta counting method; format: cell-based
[5] = biological target: T1, Mu-type opioid receptor; assay: Displacement of [3H]DAMGO from MOP receptor expressed in CHO-K1 cells after overnight incubation by beta counting method; format: cell-based
[6] = in vitro; details: human, Caco-2
Description: Apparent permeability across human Caco2 cells st 200 uM measured over 150 mins by LC/MS analysis

Delta-type opioid receptor, sequence (P41143 whole entry): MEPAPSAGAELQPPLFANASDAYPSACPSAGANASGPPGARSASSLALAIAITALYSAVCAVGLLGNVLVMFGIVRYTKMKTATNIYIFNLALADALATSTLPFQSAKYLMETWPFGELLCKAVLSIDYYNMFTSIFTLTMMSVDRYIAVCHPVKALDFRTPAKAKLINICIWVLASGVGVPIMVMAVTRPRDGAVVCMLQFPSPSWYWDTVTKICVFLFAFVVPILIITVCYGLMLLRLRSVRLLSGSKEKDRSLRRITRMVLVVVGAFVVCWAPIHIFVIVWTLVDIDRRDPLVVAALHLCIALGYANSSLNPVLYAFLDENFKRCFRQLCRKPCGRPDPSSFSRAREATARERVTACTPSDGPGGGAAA
T1 sequence (P35372 whole entry): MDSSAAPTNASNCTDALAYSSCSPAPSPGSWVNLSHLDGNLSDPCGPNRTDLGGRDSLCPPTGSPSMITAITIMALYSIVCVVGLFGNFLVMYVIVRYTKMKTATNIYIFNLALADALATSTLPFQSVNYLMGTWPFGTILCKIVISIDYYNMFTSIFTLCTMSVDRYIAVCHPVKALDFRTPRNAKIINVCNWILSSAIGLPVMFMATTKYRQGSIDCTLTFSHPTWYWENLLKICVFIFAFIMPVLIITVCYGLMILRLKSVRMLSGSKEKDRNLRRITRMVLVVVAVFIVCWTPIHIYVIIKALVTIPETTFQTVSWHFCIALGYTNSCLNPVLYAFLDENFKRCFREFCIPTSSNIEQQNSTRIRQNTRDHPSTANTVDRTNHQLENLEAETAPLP

Compound | IC50 [1] [nM] | inhibition [1] | Ratio Ki [2] | half-life at 200 µM [3] [min] | Ki [4] [nM] | Ki [5] [nM] | Papp at 2.5 h, 200 µM [6] [×10⁻⁶ cm/s]
CCCCCCCCC(N)C(=O)N[C@@H](Cc1ccc(O)cc1)C(=O)N1CCC[C@H]1C(=O)N[C@@H](Cc1c[nH]c2ccccc12)C(=O)N[C@@H](Cc1ccccc1)C(=O)N[C@@H](Cc1ccccc1)C(=O)NCC(=O)N[C@@H](CC(C)C)C(=O)N[C@@H](CCSC)C(N)=O (stereo partly drawn) (H-[ξGly(octyl)]YPWFFGLM-NH2) | 45 | Dose-dependent effect | 318 | 75.8 | 1230 | 3.87 | 10.2
CC(C)NCC(O)COc1cccc2ccccc12 (stereo not drawn) [PROPRANOLOL] | – | – | – | – | – | – | 30.5
NC(=O)[C@H](Cc1ccccc1)NC(=O)[C@H](Cc1c[nH]c2ccccc12)NC(=O)[C@@H]1CCCN1C(=O)[C@@H](N)Cc1ccc(O)cc1 [ENDOMORPHIN-1] | – | – | – | 5.6 | – | – | 1.01
OC[C@@H](O)[C@@H](O)[C@H](O)[C@H](O)CO [MANNITOL] | – | – | – | – | – | – | 0.488
H-YPWFGLM-NH2 | – | – | 1240 | 10.7 | 1980 | 1.6 | 1.41
CCCCCCCCC(N)C(=O)N[C@@H](Cc1ccc(O)cc1)C(=O)N1CCC[C@H]1C(=O)N[C@@H](Cc1c[nH]c2ccccc12)C(=O)N[C@@H](Cc1ccccc1)C(=O)NCC(=O)N[C@@H](CC(C)C)C(=O)N[C@@H](CCSC)C(N)=O (stereo partly drawn) (H-[ξGly(octyl)]YPWFGLM-NH2) | – | – | 17 | 52.5 | 2250 | 132 | 8.08
H-YPWFFGLM-NH2 | 12 | Dose-dependent effect | 2130 | 15.6 | 1560 | 0.73 | 2.04
